These results are taken from patent publication US8933070B2, “Methods of targeting PTEN mutant diseases and compositions therefor” (University Health Network, priority 2010, dated 2015).

Experiment [1] concerns the target T1, Aurora B (Homo sapiens, UniProt Q96GD4).
T1 construct: purchased Invitrogen PV3970
Kind of experiment: Aurora B inhibition assay (Z-Lyte). It counts as biochemical. To be noted: read-out: IC50 Ranges Aurura B. How it is done:
Aurora B inhibition was determined using the Z-Lyte assay kit from Invitrogen. […] The % inhibition values were determined according to the manufacturer's directions and IC50 values were obtained using a non-linear 4 point logistic curve fit (XLfit4, IDBS).

For experiment [2], the target named is PKCbeta 1 (Homo sapiens, UniProt P05771). Description: Kinase selectivity assay (CEREP, HTRF). To be noted: read-out: % Inhibition at 10 μM Concentration. It counts as biochemical. The method, then: (§1) The inhibitory activity of selected compounds was evaluated against a panel of 45 different kinase enzymes by CEREP, France. The assays were performed using standard HTRF assay methods as documented by CEREP against the human orthologues of Abl kinase, Akt1/PKBa, AMPKa, BMX kinase (Etk), Brk, CaMK2a, CaMK4, CDC2/CDK1 (cycB), CHK1, CHK2, c-Met kinase, CSK, EphB4 kinase, ERK1, ERK2 (P42mapk), FGFR2 kinase, FGFR4 kinase, FLT-1 kinase (VEGFR1), FLT-3 kinase, Fyn kinase, IGF1R kinase, IRK (InsR), JNK 2, KDR kinase (VEGFR2), Lck kinase, Lyn kinase, MAPKAPK2, MEK1/MAP2K1, p38a kinase, p38d kinase, p38g kinase, PDGFRb kinase, PDK1, PKA, PKCa, PKCb1, PKCb2, PKCg, Ret kinase, ROCK2, RSK2, Src kinase, Syk, and TRKA. The % Inhibition was determined by the formula; % Inhibition=100×(1−(experimental value−background value)/(high activity control−background value)).

Experiment [3] deals with IGF1R (Homo sapiens, UniProt P08069). Description: Kinase selectivity assay (CEREP, HTRF). It counts as biochemical. Conditions: read-out: % Inhibition at 10 μM Concentration. How it is done: as §1
On the technique in general: In TR-FRET formats the signal depends on donor and acceptor labels being close together.

For experiment [4], the system named is human mammary epithelial primary cells (HMEC). Description: Cell growth inhibition, Sulforhodamine B (SRB) assay. It counts as cell-based. To be noted: 120 h, read-out: Cell Line GI50 Range HMEC. The method, then: (§2) Aliquots (20 μl) from each concentration were overlaid to 80 μl of the pre-seeded cells in the 96-plates to make final concentrations of 10 nM to 50 μM. The cells were cultured for 5 days before the Sulforhodamine B (SRB) assay was performed to determine the compound's cell growth inhibition activity.
(§3) Sulforhodamine B (Sigma, Canada) is a water-soluble dye that binds to the basic amino acids of cellular proteins. Thus, colorimetric measurement of the bound dye provides an estimate of the total protein mass that is related to the cell number. The cells are fixed in situ by gently aspirating off the culture media and adding 50 μl ice cold 10% Trichloroacetic Acid (TCA) per well and incubated at 4° C. for 30-60 min. The plates are washed with water five times and allowed to air dry for 5 min. Addition of 50 μl 0.4% (w/v) SRB solution in 1% (v/v) acetic acid to each well and incubatation for […] at RT completes the staining reaction. Following staining, plates are washed four times with 1% acetic acid to remove unbound dye and then allowed to air dry for 5 min. […] Absorbance is read at 570 nm.
(§4) The percentage (%) of relative growth inhibition was calculated by comparing to DMSO-treated only cells (100%). GI50's were determined for compounds with cytotoxic activity. The GI50 was calculated using GraphPad PRISM software (GraphPad Software, Inc., USA).

Experiment [5] has as its system MCF-7 luminal breast cancer cell line. The experiment is described as above. It counts as cell-based. Conditions: Homo sapiens, MCF7, 120 h, read-out: Cell Line GI50 Range MCF-7. The method, then:
as §2, §3, §4

The test system of experiment [6] is SW620 colon cancer cell line. The experiment is described as above. It counts as cell-based. To be noted: Homo sapiens, SW-620, 120 h, read-out: Cell Line GI50 Range SW620. The method, then:
as §2, §3, §4

In experiment [7] the test system is A549 lung cancer cell line. The experiment is described as above. It counts as cell-based. To be noted: Homo sapiens, A549, 120 h, read-out: Cell Line GI50 Range A549. How it is done: as §2, §3, §4
For experiment [8], the system named is MDA-MB-468 basal breast cancer cell line. The experiment is described as above. To be noted: Homo sapiens, MDA-MB-468, 120 h, read-out: Cell Line GI50 Range MDA-MB-468. It counts as cell-based.
The subject of experiment [9] is HCC1954 basal breast cancer cell line. The experiment is described as above. It counts as cell-based. Conditions: Homo sapiens. The method, then:
as §2, §3, §4
The SRB assay described above was used to assay test compounds against the extended panel (Table 6).

The target of experiment [10] is T2, Aurora A (Homo sapiens, UniProt O14965).
T2 construct: purchased Invitrogen PV3612
T2 sequence (O14965 1-403): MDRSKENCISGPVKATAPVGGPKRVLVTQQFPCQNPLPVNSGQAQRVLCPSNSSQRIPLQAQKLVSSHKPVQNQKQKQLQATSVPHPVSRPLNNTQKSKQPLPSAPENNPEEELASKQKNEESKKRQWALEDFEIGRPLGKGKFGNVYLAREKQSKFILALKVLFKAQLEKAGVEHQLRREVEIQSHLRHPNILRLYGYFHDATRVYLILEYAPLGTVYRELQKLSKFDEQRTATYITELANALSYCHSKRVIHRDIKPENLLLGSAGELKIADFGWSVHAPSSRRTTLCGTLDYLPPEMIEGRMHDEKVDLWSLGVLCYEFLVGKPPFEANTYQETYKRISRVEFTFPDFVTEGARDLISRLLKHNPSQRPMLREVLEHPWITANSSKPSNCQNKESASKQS
Description: Aurora A inhibition assay (Z-Lyte). It counts as biochemical. The method, then:
Aurora A inhibition was determined using the Z-Lyte assay kit from Invitrogen. The assay was performed using the recommended manufacturer's instructions with 20 nM ATP and 12 nM Aurora A (Invitrogen cat #PV3612). The % inhibition values were determined according to the manufacturer's directions and IC50 values were obtained using a non-linear 4 point logistic curve fit (XLfit4, IDBS)

The target of experiment [11] is ERK1 (Homo sapiens, UniProt P27361). Kind of experiment: Kinase selectivity assay (CEREP, HTRF). It counts as biochemical. Conditions: read-out: % Inhibition at 10 μM Concentration. How it is done: as §1
For experiment [12], the target named is PDK1 (Homo sapiens, UniProt O15530). Kind of experiment: Kinase selectivity assay (CEREP, HTRF). It counts as biochemical. Conditions: read-out: % Inhibition at 10 μM Concentration. The method, then: as §1
Experiment [13] addresses c-Met (Homo sapiens, UniProt P08581). Description: Kinase selectivity assay (CEREP, HTRF). It counts as biochemical. Conditions: read-out: % Inhibition at 10 μM Concentration. The method, then:
as §1

For experiment [14], the target named is EphB4 (Homo sapiens, UniProt P54760). Description: Kinase selectivity assay (CEREP, HTRF). It counts as biochemical. To be noted: read-out: % Inhibition at 10 μM Concentration. The method, then:
as §1

Experiment [15] has as its target MEK1/MAP2K1 (Homo sapiens, UniProt Q02750). Description: Kinase selectivity assay (CEREP, HTRF). It counts as biochemical. To be noted: read-out: % Inhibition at 10 μM Concentration. How it is done:
as §1

Experiment [16] concerns the target CaMK2alpha (Homo sapiens, UniProt Q9UQM7). Description: Kinase selectivity assay (CEREP, HTRF). It counts as biochemical. To be noted: read-out: % Inhibition at 10 μM Concentration. The method, then: as §1
Experiment [17] has as its target Ret (Homo sapiens, UniProt P07949). Description: Kinase selectivity assay (CEREP, HTRF). To be noted: read-out: % Inhibition at 10 μM Concentration. It counts as biochemical. How it is done:
as §1

The mark [18] stands for this setting: HCC1954, 120 h, read-out: Cell Line GI50 Range HCC1954.

Read-outs that look alike come from different tables or passages of the source.

Usually IC50 stands for the concentration that gives 50% inhibition. As a reminder, the GI50 is the concentration that inhibits growth by half.

Sequence of PKCbeta 1 (P05771 whole entry): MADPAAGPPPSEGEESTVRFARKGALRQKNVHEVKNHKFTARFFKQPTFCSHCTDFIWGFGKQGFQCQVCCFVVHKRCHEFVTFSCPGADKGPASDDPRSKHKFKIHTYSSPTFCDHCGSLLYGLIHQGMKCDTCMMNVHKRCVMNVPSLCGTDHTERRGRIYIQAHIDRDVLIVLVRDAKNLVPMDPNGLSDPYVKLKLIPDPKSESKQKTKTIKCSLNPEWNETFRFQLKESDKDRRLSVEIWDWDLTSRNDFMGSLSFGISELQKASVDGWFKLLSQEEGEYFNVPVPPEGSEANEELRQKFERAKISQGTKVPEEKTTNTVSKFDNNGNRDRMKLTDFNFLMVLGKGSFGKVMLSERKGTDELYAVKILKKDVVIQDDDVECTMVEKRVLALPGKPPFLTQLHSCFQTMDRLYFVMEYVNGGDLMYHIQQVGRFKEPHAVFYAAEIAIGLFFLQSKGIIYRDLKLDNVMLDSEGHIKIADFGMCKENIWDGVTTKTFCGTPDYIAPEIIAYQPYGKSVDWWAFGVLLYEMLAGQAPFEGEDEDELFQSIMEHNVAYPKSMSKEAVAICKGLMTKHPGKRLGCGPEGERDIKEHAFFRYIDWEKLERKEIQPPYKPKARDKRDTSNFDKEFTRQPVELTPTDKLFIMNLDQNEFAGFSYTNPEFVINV
Sequence of IGF1R (P08069 31-1367): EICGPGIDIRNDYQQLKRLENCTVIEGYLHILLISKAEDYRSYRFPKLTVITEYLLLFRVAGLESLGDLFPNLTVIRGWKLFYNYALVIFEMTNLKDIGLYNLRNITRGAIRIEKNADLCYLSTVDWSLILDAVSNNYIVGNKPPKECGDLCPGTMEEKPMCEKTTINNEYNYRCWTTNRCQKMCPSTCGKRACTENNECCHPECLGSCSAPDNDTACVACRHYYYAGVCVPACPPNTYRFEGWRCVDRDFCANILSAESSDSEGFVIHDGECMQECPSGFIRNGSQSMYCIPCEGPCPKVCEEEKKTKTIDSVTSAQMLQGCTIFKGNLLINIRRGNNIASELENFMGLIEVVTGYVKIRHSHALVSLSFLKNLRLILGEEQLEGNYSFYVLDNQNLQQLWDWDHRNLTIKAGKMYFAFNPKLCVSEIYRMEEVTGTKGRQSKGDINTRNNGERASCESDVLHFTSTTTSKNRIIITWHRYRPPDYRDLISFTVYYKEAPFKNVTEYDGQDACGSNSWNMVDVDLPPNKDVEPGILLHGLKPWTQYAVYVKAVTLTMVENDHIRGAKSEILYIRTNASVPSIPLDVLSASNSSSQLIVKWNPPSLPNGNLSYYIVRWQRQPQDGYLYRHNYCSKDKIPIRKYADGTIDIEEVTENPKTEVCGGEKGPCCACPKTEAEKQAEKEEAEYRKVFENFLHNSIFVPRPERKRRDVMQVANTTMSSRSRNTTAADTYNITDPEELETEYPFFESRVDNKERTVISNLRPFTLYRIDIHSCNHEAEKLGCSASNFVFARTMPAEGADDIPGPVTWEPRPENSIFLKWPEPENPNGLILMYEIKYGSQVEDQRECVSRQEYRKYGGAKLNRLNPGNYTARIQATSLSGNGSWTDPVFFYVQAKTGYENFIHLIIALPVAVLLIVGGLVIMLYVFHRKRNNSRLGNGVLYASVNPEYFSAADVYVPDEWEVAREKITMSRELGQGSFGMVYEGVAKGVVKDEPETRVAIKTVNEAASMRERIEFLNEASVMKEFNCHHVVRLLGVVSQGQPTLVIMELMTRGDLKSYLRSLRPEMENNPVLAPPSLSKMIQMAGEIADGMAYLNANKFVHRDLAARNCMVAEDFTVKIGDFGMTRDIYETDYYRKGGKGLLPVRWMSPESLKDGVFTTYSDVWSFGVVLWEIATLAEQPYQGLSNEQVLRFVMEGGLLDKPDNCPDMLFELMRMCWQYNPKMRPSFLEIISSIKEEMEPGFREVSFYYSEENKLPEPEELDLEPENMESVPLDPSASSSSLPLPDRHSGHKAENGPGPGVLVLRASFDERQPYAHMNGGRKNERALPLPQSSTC
Sequence of ERK1 (P27361 whole entry): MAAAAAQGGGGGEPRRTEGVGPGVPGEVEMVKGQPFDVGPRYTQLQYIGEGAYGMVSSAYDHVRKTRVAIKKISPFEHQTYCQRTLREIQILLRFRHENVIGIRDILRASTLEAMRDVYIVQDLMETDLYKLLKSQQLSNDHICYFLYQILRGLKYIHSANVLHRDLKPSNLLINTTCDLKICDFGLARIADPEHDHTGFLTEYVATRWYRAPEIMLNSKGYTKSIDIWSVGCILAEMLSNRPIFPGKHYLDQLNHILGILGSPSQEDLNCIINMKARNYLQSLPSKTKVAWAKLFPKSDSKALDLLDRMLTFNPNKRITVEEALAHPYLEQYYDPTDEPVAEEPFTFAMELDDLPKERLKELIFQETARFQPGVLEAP
Sequence of PDK1 (O15530 whole entry): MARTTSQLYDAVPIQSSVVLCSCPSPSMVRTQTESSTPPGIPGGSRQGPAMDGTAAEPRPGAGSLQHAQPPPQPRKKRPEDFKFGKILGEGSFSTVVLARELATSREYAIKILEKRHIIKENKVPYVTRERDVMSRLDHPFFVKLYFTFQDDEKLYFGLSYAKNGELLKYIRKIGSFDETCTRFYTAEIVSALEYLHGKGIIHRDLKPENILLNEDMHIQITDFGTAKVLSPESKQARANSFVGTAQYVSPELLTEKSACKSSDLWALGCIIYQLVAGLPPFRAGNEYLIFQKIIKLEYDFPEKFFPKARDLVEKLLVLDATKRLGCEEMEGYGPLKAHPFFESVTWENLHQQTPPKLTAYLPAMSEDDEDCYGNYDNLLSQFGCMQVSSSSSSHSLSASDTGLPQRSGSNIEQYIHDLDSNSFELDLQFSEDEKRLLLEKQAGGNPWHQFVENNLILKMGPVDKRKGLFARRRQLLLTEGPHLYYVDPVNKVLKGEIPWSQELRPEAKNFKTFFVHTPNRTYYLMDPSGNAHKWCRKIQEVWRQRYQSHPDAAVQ
Sequence of EphB4 (P54760 16-987): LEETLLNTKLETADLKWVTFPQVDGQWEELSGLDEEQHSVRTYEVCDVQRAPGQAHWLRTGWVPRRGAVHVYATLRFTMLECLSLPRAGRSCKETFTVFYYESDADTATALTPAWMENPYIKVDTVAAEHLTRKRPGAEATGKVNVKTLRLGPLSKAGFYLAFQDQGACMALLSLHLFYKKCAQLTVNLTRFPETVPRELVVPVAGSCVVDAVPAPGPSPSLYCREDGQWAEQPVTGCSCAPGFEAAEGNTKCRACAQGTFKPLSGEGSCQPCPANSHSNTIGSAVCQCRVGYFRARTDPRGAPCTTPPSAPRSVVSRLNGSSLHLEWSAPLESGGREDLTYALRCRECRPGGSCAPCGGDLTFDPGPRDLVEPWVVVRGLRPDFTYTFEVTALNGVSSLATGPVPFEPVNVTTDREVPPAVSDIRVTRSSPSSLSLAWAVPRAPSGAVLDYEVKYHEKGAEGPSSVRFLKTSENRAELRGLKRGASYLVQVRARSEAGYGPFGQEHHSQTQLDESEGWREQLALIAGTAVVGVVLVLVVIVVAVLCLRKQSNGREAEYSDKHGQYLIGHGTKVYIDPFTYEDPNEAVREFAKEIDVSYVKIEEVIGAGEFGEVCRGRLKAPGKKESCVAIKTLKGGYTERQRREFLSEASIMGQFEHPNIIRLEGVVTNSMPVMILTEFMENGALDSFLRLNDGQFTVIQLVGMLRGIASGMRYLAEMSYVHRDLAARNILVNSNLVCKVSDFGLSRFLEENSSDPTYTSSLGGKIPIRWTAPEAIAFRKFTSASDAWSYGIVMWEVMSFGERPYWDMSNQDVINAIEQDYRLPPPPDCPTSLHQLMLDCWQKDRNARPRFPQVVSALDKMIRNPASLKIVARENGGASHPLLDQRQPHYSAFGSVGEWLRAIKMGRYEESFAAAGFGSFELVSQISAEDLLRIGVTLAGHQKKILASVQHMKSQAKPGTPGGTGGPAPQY
T1 sequence (Q96GD4 whole entry): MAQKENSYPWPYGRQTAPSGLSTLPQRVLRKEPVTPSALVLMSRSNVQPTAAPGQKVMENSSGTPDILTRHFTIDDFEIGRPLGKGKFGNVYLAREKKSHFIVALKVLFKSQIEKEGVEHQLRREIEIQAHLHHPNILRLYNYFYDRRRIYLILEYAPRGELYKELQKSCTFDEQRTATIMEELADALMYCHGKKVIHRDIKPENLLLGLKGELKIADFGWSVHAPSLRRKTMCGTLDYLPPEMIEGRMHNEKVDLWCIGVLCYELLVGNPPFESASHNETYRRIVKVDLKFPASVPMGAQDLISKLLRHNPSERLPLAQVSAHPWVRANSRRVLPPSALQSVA
Sequence of MEK1/MAP2K1 (Q02750 whole entry): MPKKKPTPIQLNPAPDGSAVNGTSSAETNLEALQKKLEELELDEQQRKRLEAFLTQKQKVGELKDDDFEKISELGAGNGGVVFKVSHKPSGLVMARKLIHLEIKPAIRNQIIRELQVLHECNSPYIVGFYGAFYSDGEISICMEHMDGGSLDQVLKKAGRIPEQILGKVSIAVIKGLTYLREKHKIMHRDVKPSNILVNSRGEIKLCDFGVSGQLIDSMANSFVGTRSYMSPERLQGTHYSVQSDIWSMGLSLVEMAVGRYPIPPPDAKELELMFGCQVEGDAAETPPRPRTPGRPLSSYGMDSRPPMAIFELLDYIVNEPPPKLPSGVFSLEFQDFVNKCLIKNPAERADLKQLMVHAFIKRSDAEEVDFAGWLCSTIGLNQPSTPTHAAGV

On to `COc1ccc2c(c1)[C@@]1(C[C@@H]1c1ccc3c(-c4ccc(N5CCN(C)CC5)nc4)n[nH]c3c1)C(=O)N2` (racemic) [Compound 2], for which the concentration for half-maximal inhibition (IC50) in experiment [1] is less than 5 µM. The inhibition at 10 µM is -2% in experiment [2]; -3% in experiment [3]; less than 50% in [10] (dose of 10 μM, read-out: Aurora A relative inhibition percentage). For the same compound, the GI50 in experiment [4] is 20 to 50 µM; in [5], less than 5 µM; in [6], less than 5 µM; in experiment [7] it was less than 5 µM; in experiment [8], less than 5 µM; in [9] (setting [18]), less than 5 µM.
In the case of `CN(C)Cc1ccc(/C=C/c2n[nH]c3cc([C@H]4C[C@@]45C(=O)Nc4ccccc45)ccc23)cc1` (racemic) [Compound 35], the inhibition at 10 µM is 1% in [11]; 2% in experiment [12]; 61% in [13]; 65% in [14]; -2% in experiment [2] (PKCbeta 1, 10 μM); 0% in experiment [3] (IGF1R, 10 μM). The inhibition at 10 µM in [15] is -2%; in experiment [16] it was 9%; in [17], 86%. In addition, the GI50 was 5 to 20 µM in experiment [4]; less than 5 µM in [5]; less than 5 µM in experiment [6]; less than 5 µM in experiment [7]; less than 5 µM in experiment [8]; less than 5 µM in experiment [9] (setting [18]).
`COc1ccc2c(c1)/C(=C\c1ccc3c(/C=C/c4ccc(N5CCN(C)CC5)nc4)n[nH]c3c1)C(=O)N2` [Compound 3]: the IC50 in [1] and in [10] (read-out: IC50 Ranges Aurora A) was less than 5 µM each time. The inhibition at 10 µM in [11] is 2%; in experiment [12], 5%; in experiment [13], 2%; in [14] it was -1%; in experiment [2] (PKCbeta 1, 10 μM), 1%; in experiment [3] (IGF1R, 10 μM) it was 5%. For the same compound, the inhibition at 10 µM in [15] was -3%; in experiment [16] it was 2%; in [17] it was 33%. The GI50 in experiment [9] (HCC1954, read-out: GI50 Range HCC1954) was less than 5 µM.
